The experiment relates to HT-29 cells. The experiment in a line: HT-29 necroptosis cell viability assay (TNF-α/SMAC mimetic/zVAD-FMK, CellTiter-Glo). The format is cell-based. The following applies: Homo sapiens. The method, boiled down:
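HT-29 cells (~5,000/well, overnight) in FBS-free McCoy's 5A with TNF-α 10 ng/ml, SMAC mimetic 6 μM and zVAD-FMK 10 μM plus 10-point 1:3 compound titration, 20 h at 37°C. ATP measured by CellTiter-Glo luminescence; IC50 as geometric mean of duplicates.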
(Cellular ATP, detected with luciferase, serves as a proxy for viable cell number.)

[1] abbreviates: HT-29, HT-29 necroptosis cell viability, IC50 class symbols, read-out: Activity.
Where [2] appears, read: HT-29, HT-29 cells, necroptosis induced by TNF-α/SMAC mimetic/zVAD-FMK, CellTiter-Glo, read-out: Activity (IC50 class).
[3] abbreviates: HT-29, HT-29 necroptosis cell viability assay, class symbols for IC50, read-out: Activity.

Like-named read-outs stand apart in the source and are kept apart here.

As to `CCN(C)c1cc(Oc2ccc(-n3ncn(Cc4c(F)cccc4F)c3=O)cc2)ccn1` [Example 353, 4-(2,6-difluorobenzyl)-2-(4-((2-(ethyl(methyl)amino)pyridin-4-yl)oxy)phenyl)-2,4-dihydro-3H-1,2,4-triazol-3-one], under setting [1], the IC50 was 0.1 to 1 µM. Turning to `Cc1nc(C2=CCOCC2)sc1Oc1ccc(-n2ncn(Cc3c(F)cccc3F)c2=O)cc1` [Example 631, 4-(2,6-difluorobenzyl)-2-(4-((2-(3,6-dihydro-2H-pyran-4-yl)-4-methylthiazol-5-yl)oxy)phenyl)-2,4-dihydro-3H-1,2,4-triazol-3-one], under setting [2], the IC50 is less than 0.1 µM. In the case of `N#CC1CN(c2cc(Oc3ccc(-n4ncn(Cc5c(F)cccc5F)c4=O)cc3)ccn2)C1` [Example 338, 1-(4-(4-(4-(2,6-difluorobenzyl)-5-oxo-4,5-dihydro-1H-1,2,4-triazol-1-yl)phenoxy)pyridin-2-yl)azetidine-3-carbonitrile], under setting [1], the IC50 is 0.1 to 1 µM. The same measure, in the same setting: the same measure for `C[C@H]1CCCN1c1cc(Oc2ccc(-n3ncn(Cc4c(F)cccc4F)c3=O)cc2)ccn1` [Example 268, (S)-4-(2,6-difluorobenzyl)-2-(4-((2-(2-methylpyrrolidin-1-yl)pyridin-4-yl)oxy)phenyl)-2,4-dihydro-3H-1,2,4-triazol-3-one]: less than 0.1 µM. For the compound `Cc1nc(Br)cn1Cc1ccc(-n2ncn(Cc3c(F)cccc3F)c2=O)cc1` [Example 666, 2-(4-((4-bromo-2-methyl-1H-imidazol-1-yl)methyl)phenyl)-4-(2,6-difluorobenzyl)-2,4-dihydro-3H-1,2,4-triazol-3-one], the IC50 under setting [2] is less than 0.1 µM. With `CC(C)(N)C1CN(c2cc(Oc3ccc(-n4ncn(Cc5c(F)cccc5F)c4=O)cc3F)c(F)cn2)C1` [Example 374, 2-(4-((2-(3-(2-aminopropan-2-yl)azetidin-1-yl)-5-fluoropyridin-4-yl)oxy)-3-fluorophenyl)-4-(2,6-difluorobenzyl)-2,4-dihydro-3H-1,2,4-triazol-3-one], the IC50 under setting [1] is 0.1 to 1 µM. Turning to `Cc1c(C(C)(C)O)noc1Oc1ccc(-n2ncn(Cc3c(F)cccc3F)c2=O)cc1F` [Example 472, 4-(2,6-difluorobenzyl)-2-(3-fluoro-4-((3-(2-hydroxypropan-2-yl)-4-methylisoxazol-5-yl)oxy)phenyl)-2,4-dihydro-3H-1,2,4-triazol-3-one], under setting [1], the IC50 lay within 0.1 to 1 µM. Turning to `CCC1(Nc2cc(Oc3ccc(-n4ncn(Cc5c(F)cccc5F)c4=O)cc3)ccn2)CC1` [Example 528, 4-(2,6-difluorobenzyl)-2-(4-((2-((1-ethylcyclopropyl)amino)pyridin-4-yl)oxy)phenyl)-2,4-dihydro-3H-1,2,4-triazol-3-one], under setting [3], the IC50 lay in the range of 0.1 to 1 µM. With `Cc1nc(C(=O)NCCN)sc1Oc1ccc(-n2ncn(Cc3ccccc3F)c2=O)cc1F` [Example 148, N-(2-aminoethyl)-5-(2-fluoro-4-(4-(2-fluorobenzyl)-5-oxo-4,5-dihydro-1H-1,2,4-triazol-1-yl)phenoxy)-4-methylthiazole-2-carboxamide], under setting [3], the IC50 was less than 0.1 µM. As for `Cc1nc(C(C)O)sc1Oc1ccc(-n2ncn(Cc3c(F)cccc3F)c2=O)cc1` (racemic) [Example 459, 4-(2,6-difluorobenzyl)-2-(4-((2-(1-hydroxyethyl)-4-methylthiazol-5-yl)oxy)phenyl)-2,4-dihydro-3H-1,2,4-triazol-3-one], the IC50 under setting [1] was less than 0.1 µM.

On to `CC1(C)CC(=O)N(c2cc(Oc3ccc(-n4ncn(Cc5c(F)cccc5F)c4=O)cc3)ccn2)C1` [Example 254, 4-(2,6-difluorobenzyl)-2-(4-((2-(4,4-dimethyl-2-oxopyrrolidin-1-yl)pyridin-4-yl)oxy)phenyl)-2,4-dihydro-3H-1,2,4-triazol-3-one], for which, under setting [1], the IC50 fell in the range of 0.1 to 1 µM. In the case of `COC(=O)c1ncsc1Oc1ccc(-n2ncn(Cc3c(F)cccc3F)c2=O)cc1F` [Example 128, methyl 5-(4-(4-(2,6-difluorobenzyl)-5-oxo-4,5-dihydro-1H-1,2,4-triazol-1-yl)-2-fluorophenoxy)thiazole-4-carboxylate], the IC50 under setting [3] was 0.1 to 1 µM.

Take `COC1(C#N)CN(c2cc(Oc3ccc(-n4ncn(Cc5c(F)cccc5F)c4=O)cc3F)c(C)cn2)C1` [Example 239, 1-(4-(4-(4-(2,6-difluorobenzyl)-5-oxo-4,5-dihydro-1H-1,2,4-triazol-1-yl)-2-fluorophenoxy)-5-methylpyridin-2-yl)-3-methoxyazetidine-3-carbonitrile]: the IC50 under setting [1] is less than 0.1 µM. For `CC(C)Nc1cc(Oc2ccc(-n3ncn(Cc4c(F)cccc4F)c3=O)cc2)ccn1` [Example 345, 4-(2,6-difluorobenzyl)-2-(4-((2-(isopropylamino)pyridin-4-yl)oxy)phenyl)-2,4-dihydro-3H-1,2,4-triazol-3-one], the IC50 under setting [1] fell in the range of 0.1 to 1 µM. `N#CC12CC(Nc3nccc(Oc4ccc(-n5ncn(Cc6c(F)cccc6F)c5=O)cc4)c3Cl)(C1)C2` [Example 248, 3-((3-chloro-4-(4-(4-(2,6-difluorobenzyl)-5-oxo-4,5-dihydro-1H-1,2,4-triazol-1-yl)phenoxy)pyridin-2-yl)amino)bicyclo[1.1.1]pentane-1-carbonitrile]: under setting [1], the IC50 was less than 0.1 µM. `Cn1c(C(C)(C)O)cnc1Oc1ccc(-n2ncn(Cc3c(F)cccc3F)c2=O)cc1F` [Example 132, 4-(2,6-difluorobenzyl)-2-(3-fluoro-4-((5-(2-hydroxypropan-2-yl)-1-methyl-1H-imidazol-2-yl)oxy)phenyl)-2,4-dihydro-3H-1,2,4-triazol-3-one]: under setting [3], the IC50 lay in the range of 1 to 10 µM.

On to `CC1(CNC(=O)OC(C)(C)C)CN(c2cc(Oc3ccc(-n4ncn(Cc5c(F)cccc5F)c4=O)cc3F)c(F)cn2)C1` [Example 557, tert-butyl ((1-(4-(4-(4-(2,6-difluorobenzyl)-5-oxo-4,5-dihydro-1H-1,2,4-triazol-1-yl)-2-fluorophenoxy)-5-fluoropyridin-2-yl)-3-methylazetidin-3-yl)methyl)carbamate], for which the IC50 under setting [3] was less than 0.1 µM.

For `Cc1nc(C(C)(C)O)sc1Oc1ccc(-n2ncn(Cc3c(F)cccc3C#N)c2=O)cc1F` [Example 579, 3-fluoro-2-((1-(3-fluoro-4-((2-(2-hydroxypropan-2-yl)-4-methylthiazol-5-yl)oxy)phenyl)-5-oxo-1,5-dihydro-4H-1,2,4-triazol-4-yl)methyl)benzonitrile], under setting [3], the IC50 is less than 0.1 µM. For the compound `O=c1n(Cc2c(F)cccc2F)cnn1-c1ccc(Oc2ccnc(NC3CC3)c2)cc1` [Example 523, 2-(4-((2-(cyclopropylamino)pyridin-4-yl)oxy)phenyl)-4-(2,6-difluorobenzyl)-2,4-dihydro-3H-1,2,4-triazol-3-one], the IC50 under setting [3] was in the range of 0.1 to 1 µM. The same measure, in the same setting: the result for `CC1(N)CN(c2nc(C(F)F)c(Oc3ccc(-n4ncn(Cc5c(F)cccc5F)c4=O)cc3F)s2)C1` [Example 153, 2-(4-((2-(3-amino-3-methylazetidin-1-yl)-4-(difluoromethyl)thiazol-5-yl)oxy)-3-fluorophenyl)-4-(2,6-difluorobenzyl)-2,4-dihydro-3H-1,2,4-triazol-3-one] reads less than 0.1 µM. For `C[C@H]1[C@H](NC(=O)OC(C)(C)C)CN1c1cc(Oc2ccc(-n3ncn(Cc4c(F)cccc4F)c3=O)cc2F)c(F)cn1` [Example 376, tert-butyl ((2S,3R)-1-(4-(4-(4-(2,6-difluorobenzyl)-5-oxo-4,5-dihydro-1H-1,2,4-triazol-1-yl)-2-fluorophenoxy)-5-fluoropyridin-2-yl)-2-methylazetidin-3-yl)carbamate], the IC50 under setting [1] was less than 0.1 µM. With `CC(C)(C)OC(=O)Nc1cc(Oc2ccc(-n3ncn(Cc4ccccc4)c3=O)cc2)ccn1` [Example 311, tert-butyl (4-(4-(4-benzyl-5-oxo-4,5-dihydro-1H-1,2,4-triazol-1-yl)phenoxy)pyridin-2-yl)carbamate], the IC50 under setting [1] fell in the range of 0.1 to 1 µM. On to `Cc1nc(C2=NCCN2C)sc1Oc1ccc(-n2ncn(Cc3c(F)cccc3F)c2=O)cc1` [Example 633, 4-(2,6-difluorobenzyl)-2-(4-((4-methyl-2-(1-methyl-4,5-dihydro-1H-imidazol-2-yl)thiazol-5-yl)oxy)phenyl)-2,4-dihydro-3H-1,2,4-triazol-3-one], for which the IC50 under setting [2] was less than 0.1 µM. The same measure, in the same setting: the result for `COc1ncccc1Cc1ccc(-n2ncn(Cc3c(F)cccc3F)c2=O)cc1` [Example 683, 4-(2,6-difluorobenzyl)-2-(4-((2-methoxypyridin-3-yl)methyl)phenyl)-2,4-dihydro-3H-1,2,4-triazol-3-one] reads less than 0.1 µM. On to `Cc1nc([C@H](C)O)sc1Oc1ccc(-n2nc3n(c2=O)[C@H](c2ccccc2)CC3)cc1F` (single isomer, unassigned) [Example 151], for which the IC50 under setting [3] is less than 0.1 µM.

Turning to `NC1(CO)CN(c2cc(Oc3ccc(-n4ncn(Cc5c(F)cccc5F)c4=O)cc3F)c(F)cn2)C1` [Example 378, 2-(4-((2-(3-amino-3-(hydroxymethyl)azetidin-1-yl)-5-fluoropyridin-4-yl)oxy)-3-fluorophenyl)-4-(2,6-difluorobenzyl)-2,4-dihydro-3H-1,2,4-triazol-3-one], the IC50 under setting [1] lay in the range of 0.1 to 1 µM. `Cc1ncsc1OC1CCC(n2ncn(Cc3c(F)cccc3F)c2=O)CC1` (centres unmarked) [Example 162, 4-(2,6-difluorobenzyl)-2-(4-((4-methylthiazol-5-yl)oxy)cyclohexyl)-2,4-dihydro-3H-1,2,4-triazol-3-one]: the IC50 under setting [3] was 0.1 to 1 µM.

As for `CC1(N)CN(c2nccc(Oc3ccc(-n4ncn(Cc5c(F)cccc5F)c4=O)cc3F)c2F)C1` [Example 416, 2-(4-((2-(3-amino-3-methylazetidin-1-yl)-3-fluoropyridin-4-yl)oxy)-3-fluorophenyl)-4-(2,6-difluorobenzyl)-2,4-dihydro-3H-1,2,4-triazol-3-one], the IC50 under setting [1] was less than 0.1 µM. Same read-out and setting: the same measure for `O=c1n(Cc2c(F)cccc2F)cnn1-c1ccc(Oc2ccnc(N3CC(OC(F)(F)F)C3)c2)cc1` [Example 275, 4-(2,6-difluorobenzyl)-2-(4-((2-(3-(trifluoromethoxy)azetidin-1-yl)pyridin-4-yl)oxy)phenyl)-2,4-dihydro-3H-1,2,4-triazol-3-one]: 0.1 to 1 µM.

The values are drawn from patent US20250179061A1 (SIRONAX LTD., priority 2022, published 2025).
